Results: US9883691B2, “Food and beverage products containing 1,3-propanediol and methods of modifying flavor release using 1,3-propanediol” (Kraft Foods Group Brands LLC, priority 2012, dated 2018)

How the values were obtained:
[1] = PTR-MS real-time headspace release, watermelon flavor model in water (Example 1); format: physicochemical; design: Sample A (PG) Mean / Sample B (1,3-propanediol) Mean: unit not given here; details: for Sample B (1,3-propanediol) Mean / Sample A (PG) Mean: PTR-MS headspace, diluted in water, 90 minutes equilibration, mean of three; for Sample B (1,3-propanediol) Mean: watermelon flavor concentrate in 1,3-propanediol; for Sample A (PG) Mean: watermelon flavor concentrate in propylene glycol; for Percent Release Difference: Sample B (1,3-propanediol) relative to Sample A (PG)
Experimental: The impact of 1,3-propanediol on the release of flavor compounds can be analyzed by Proton Transfer Reaction Mass Spectrometry (PTR-MS; model TOF-8000 from Ionicon Analytik Inc.), where real-time headspace release of volatiles is measured. A sampling apparatus is needed in conjunction with the PTR-MS inlet to prevent variations caused by headspace kinetics. By one exemplary approach, the sampling apparatus includes a 4 ounce sample vessel equipped with a 2-hole lid which may be sealed by an adhesive film to allow equilibration. […]. The holes are equal sized (˜2 mm diameter) and match the outer diameter of the PTR-MS inlet line. The flow of the dilution gas into the vessel is regulated by the vacuum and proportional valve of the PTR-MS inlet system. The sample vessel has a base diameter of 47 mm and is 45 mm high, of which 8 mm of height is occupied by the sample in the vessel in these experiments. The 2 holes in the lid are equidistant from the edge of the vessel (˜20 mm) and about 30 mm from each other. The PTR-MS inlet is braced by clamps in a fixed position vertically above the laboratory bench (˜55 mm) and a silicone rubber depth gauge is affixed to the PTR-MS inlet tubing and set at 18 mm. The PTR-MS inlet is thus consistently oriented in a vertical position 18 mm below the inside lid of the vessel and 19 mm above the sample in the vessel. The sample vessel is then held in place during sampling according to the depth gauge on the inlet line and the vessel is subsequently supported on the bench by a 10 mm plastic spacer.
15 grams of the sample to be tested (e.g., food or beverage product containing 1,3-propanediol) are added to the vessel. The vessel is sealed and allowed to equilibrate at room temperature (˜22° C.) for 90 minutes. At the time of sampling, the seal is removed from both the sampling hole and the dilution gas hole in the lid and the vessel is immediately affixed to the PTR-MS inlet via the sampling hole. The real-time released flavor is measured from the headspace of the sample vessel for two minutes (according to the conditions listed in Table 1 below). A comparative sample is prepared that is otherwise identical to the test sample but contains propylene glycol or water instead of 1,3-propanediol. The comparative sample is then analyzed in triplicate by PTR-MS using the above-described procedure. The data can be analyzed using PTR-MS Viewer, Version 3.0.0.101 (Ionicon Analytik G.m.b.H). The point of maximum intensity for each compound of interest can be determined and recorded according to the PTR-MS Viewer software. The maximum intensity in counts over the timescale for each compound of interest can be used for data analysis as it reflects the static equilibrium headspace concentration in the system at the moment of seal removal. Due to the necessity of a dilution gas, the volatile concentration decreases over time as the compounds of interest re-equilibrate to a state of dynamic equilibrium in the headspace.
[…]. Sample A was prepared with 20 grams watermelon flavor concentrate and 80 grams propylene glycol. Sample B was prepared with 20 grams watermelon flavor concentrate and 80 grams 1,3-propanediol. Each of the samples was further diluted by adding 0.08 grams of each diluted concentrate to 99.92 grams water to provide a flavor water solution.
The diluted samples were analyzed by Proton Transfer Reaction Mass Spectrometry (PTR-MS; model TOF-8000 from Ionicon Analytik Inc.) for real-time headspace release volatiles measurement. Samples were analyzed in triplicate. […]. […].

[2] = PTR-MS headspace release in neat solvent, solvent/solvent experiment (Example 5); format: physicochemical; design: key to Release Differences: “Z” indicates that 1,3-propanediol had higher equilibrium maximum (meaning more of the flavor was released in 1,3-propanediol); “P” indicates that propylene glycol had higher equilibrium maximum; “-” indicates no statistical difference (95% significance) between the two samples; details: 1.5 hrs equilibration; for Release Differences: 1,3-propanediol versus propylene glycol as sole solvent, 95% significance
Experimental: […]. Then the head space was analyzed as described above.
0.86 grams of the concentrate was added to 100 grams of either propylene glycol or 1,3-propanediol to provide a 1,3-propanediol diluted concentrate or propylene glycol diluted concentrate. The diluted concentrates were then further diluted as outlined in Table 10 below.
A 15 gram sample was weighed into a 4 oz vessel and analyzed at 1.5 hrs. of equilibration time as described in the method of Example 4.

[3] = not marked (est); cited from earlier work

Structure (SMILES)	Sample B (1,3-propanediol) Mean [1]	Sample A (PG) Mean [1]	Percent Release Difference [1] [%]	Release Differences [2]	release in 1,3-propanediol versus propylene glycol, solvent/solvent [2]	logP (o/w) [3]
O=Cc1ccccc1 [Benzaldehyde]	32.00	39.67	−19.3	P	–	–
CCCC(=O)OCC [Ethyl butyrate]	5827	10983	−46.9	Z	–	–
CC=O [Acetaldehyde]	877	803.33	9.1	Z	released faster (as evidenced by higher headspace concentration) in 1,3-propanediol	−0.16
